Data published in patent US20190167711A1, “METHODS FOR DIAGNOSIS AND TREATMENT OF ACUTE LYMPHOBLASTIC LEUKEMIA” (MOR RESEARCH APPLICATIONS LTD., priority 2014, published 2019).

Experiments:
[1] = test system: NAMPT; assay: NAMPT expression after TPA treatment; assay type: cell-based; settings: 50 ng/ml for 24 hours, human peripheral blood cells, FACS
Protocol: Studies by several investigators have shown that 12-0-tetradecanoylphorbol-13-acetate (TPA) (Sigma) is an extraordinarily potent tumor promoter and stimulates protein kinase C (PKC). Since NAMPT is over-expressed in several tumors, it was believed that it might be possible to achieve NAMPT stimulation by TPA treatment. To test this hypothesis, human peripheral blood cells were treated with 50 ng/ml TPA for 24 hours, and NAMPT expression was measured by FACS using a specific NAMPT antibody.

[2] = test system: NAD^+ levels; assay: NAD assay in TPA stimulated cells; assay type: cell-based, human
Protocol: (§1) The NAD^+/NADH ratio was measured in whole-cell extracts of NALM-6 cells using the Biovision NAD^+/NADH Quantification Colorimetric™ Kit (BioVision, San Francisco, Calif., USA) (also referred to herein as “NAD assay”) according to the manufacturer's protocol (see, for example, https://www.biovision.com/documentation/datasheets/K337.pdf). The NAD Cycling Enzyme Mix in the kit specifically recognizes NADH/NAD^+ in an enzyme cycling reaction. After 4 hrs, the plate was read at optical density (OD) 450 nm. The readings were normalized to the cell number and the NAD^+/NADH ratio was calculated as: (total NAD^+−NADH)/NADH.
NAMPT is the rate-limiting enzyme in the NAD^+ biosynthetic pathway. Thus, NAD^+ levels in the stimulated cells were measured using a standard NAD assay (BioVision NADH/NAD^+ Quantification Colorimetric™ Kit).

[3] = test system: NAD^+ formation in Nalm-6 cell line; assay: NAD^+/NADH assay in Nalm-6 cells treated with FK866; assay type: cell-based
Protocol: as §1
Nalm-6 cells were treated for 1, 3, and 6 hours with 1 nM FK866 (Sigma) and NAD^+ formation was measured using NAD assay as described in Materials and Methods.
The sensitivity of NALM-6 cells to the NAMPT inhibitor FK866 was measured in cells following transfection with miR-451 mimic (SEQ ID NO: 2), miR-451 inhibitor (miArrest™ miR-451 expression clone; GeneCopoeia™), or scrambled miR. Sensitivity was assessed by measuring the levels of NAD^+. […] Thus, miR-451 expression can distinguish between patients that could benefit from treatment with NAMPT inhibitors such as FK866.

[4] = test system: NALM-6/miR-451 mimic; assay: FK866 in xenograft of NALM-6/miR-451 mimic stable line; assay type: in vivo, NSG™ mice
Protocol: (§2) miR-451 precursor and antagomiR-451 expression clones were obtained from GeneCopoeia™ (GeneCopoeia, Rockville, Md., USA). Stable cell lines were prepared by the Tel Aviv University's Vector Core Facility by transduction of ALL cell line (NALM-6) with lentiviral particles co-encoding miR-451 precursor or antagomiR-451, the ORF for EGFP/mCherry and puromycin-resistance, under the control of individual CMV promoters. The ORFs and the miR-451 precursor/antagomiR-451 oligonucleotide sequences were incorporated into the pLL3.7 3rd generation lentiviral vector. […]
(§3) Ten million ALL NALM-6 cells in 100 μl saline were injected subcutaneously, above the femur, to 6-8 weeks-old NSG™ mice (NSG™ mouse model variants are the most highly immunodeficient mice and therefore were chosen as models for cancer xenograft modelling). […] The volume of tumors was measured daily until mice were sacrificed. Tumor volume was monitored using vernier caliper measurements and calculated using the formula π(length)(width)^2/6. […]
(§4) In order to assess a possible association or correlation between miR-451 expression levels and sensitivity to in-vivo treatment of ALL with a NAMPT inhibitor, the effect of the NAMPT inhibitor FK866 was assessed in the presence of elevated levels or lowered levels of miR-451 in ALL xenograft mouse model. […] Tumors volume was measured daily.

[5] = Phase I, patients with advanced cancers; cited from earlier work
[6] = test system: Nalm-6 cells; assay: XTT cell viability assay in Nalm-6 cells; assay type: cell-based; settings: 1 nM for 48 hours, Nalm-6 cells, XTT
Protocol: Cell viability assay was performed using the Cell Proliferation Kit comprising the second-generation tetrazolium dye, XTT. Viable cells with active metabolism convert XTT into an orange colored reduction product, whereas dead cells lose the ability to reduce XTT, thus, color formation serves as a useful and convenient marker of only the viable cells.
The XTT kit was applied to NALM6 transfected cells according to the manufacturer's protocol (Biological Industries, Kibbutz Beit Haemek, Israel). Cells were incubated for 3 hours with the XTT reagent and quantity of reduced XTT (directly proportional to the number of viable cells) was assessed by recording changes in absorbance as measured on a microplate reader at 450-500 nm optical density (OD).
(§5) To measure the effect of NAD^+ depletion following FK866 treatment of Nalm-6 cells, apoptosis and viability were measured as described in Materials and Methods. Nalm-6 cells were treated for 48 hours with 1 nM FK866, and then apoptosis was measured using FACS.

[7] = test system: Nalm-6 cells; assay: Annexin V-FITC apoptosis assay in Nalm-6 cells; assay type: cell-based; settings: 1 nM for 48 hours, Nalm-6 cells, FACS
Text: Cells were stained with annexin V-fluorescein-5-isothiocyanate (FITC) conjugated antibody and propidium iodide (PI) using the Annexin V-FITC Apoptosis Detection Kit (ab14085, Abcam® Incorporated, Cambridge, Mass., USA) according to manufacturer's instructions (see, for example, https://www.abcam.com/ps/products/14/ab14085/documents/ab14085%20Annexin %20V%20FITC%20Apoptosis%20Detection%20Kit%20v4%20(website).pdf), and read on the flow cytometer. Annexin V Apoptosis Detection Kit is based on the observation that soon after initiating apoptosis, cells translocate the membrane phosphatidylserine (PS) from the inner face of the plasma membrane to the cell surface. Once on the cell surface, PS can be easily detected by staining with a fluorescent conjugate (e.g., FITC) of Annexin V, a protein that has a high affinity for PS. The one-step staining procedure takes only 10 minutes. When performing both Annexin V-FITC and PI staining, it is possible to differentiate apoptosis vs necrosis.
as §5

[8] = test system: ALL NALM-6 cells; assay: FK866 in ALL xenograft mouse model; assay type: in vivo, NSG™ mice
Protocol: Ten million ALL NALM-6 cells in 100 μl saline were injected subcutaneously, above the femur, to 6-8 weeks-old NSG™ mice (NSG™ mouse model variants are the most highly immunodeficient mice and therefore were chosen as models for cancer xenograft modelling). Tumors were clinically evident 15-28 days following injection in more than 85% of the mice (n=175). Mice were divided into groups receiving either FK866 or vehicle treatment. Mice in the treatment group received FK866 in 0.9% saline intraperitoneally at a dose of 15 mg/Kg daily for 5 days. Vehicle in the control group was injected intraperitoneally once a day for 5 days repeated weekly. The volume of tumors was measured daily until mice were sacrificed. Tumor volume was monitored using vernier caliper measurements and calculated using the formula π(length)(width)^2/6. Each experiment was ended when tumor size reached 12×12 mm^3. All animal experiments were performed under an approved animal study protocol.
Following the in vitro studies described in Example 4 herein, the sensitivity of ALL tumor growth to a NAMPT inhibitor was tested in-vivo in an ALL xenograft mouse model. The NAMPT inhibitor tested was the known small molecule FK866. The effect of FK866 was tested in the ALL xenograft mouse model in 4 independent experiments each performed on a group of 82 NSG™ mice as follows: 41 mice were treated with FK866 (15 mg/kg) once a day for 5 days repeated weekly, and 41 mice served as controls (i.e., were not treated with FK866 and received saline instead).
Mice were treated from the day tumors were clinically evident in all mice (day 25), and tumors volume was measured daily.

[9] = test system: NALM-6/antagomiR-451; assay: FK866 in xenograft of NALM-6/antagomiR-451 stable line; assay type: in vivo, NSG™ mice
Protocol: as §2, §3, §4

[10] = test system: phospho-STAT protein; assay: Phospho-STAT levels by FACS after miR-1290 mimic transfection; assay type: cell-based; settings: NALM-6 cell line transfected
Protocol: Phosphorylated STAT (phospho-STAT, activated by JAK) levels were measured by FACS analysis following transfection of miR-1290 mimic (overexpression) into NALM-6 cell line. An increase of 50% in the levels of phospho-STAT protein was evident in the cells expressing high levels of miR-1290 (FIG. 11).

For `CCCCCCCCCCCCCC(=O)O[C@@H]1[C@@H](C)[C@@]2(O)[C@@H](C=C(CO)C[C@]3(O)C(=O)C(C)=C[C@@H]23)[C@@H]2C(C)(C)[C@]12OC(C)=O` [TPA, 12-O-tetradecanoylphorbol-13-acetate], the “increase in NAMPT expression levels” value [1] was “more than 4 folds” and the “cellular NAD^+ levels, fold higher” value [2] was 2 fold.
For `O=C(/C=C/c1cccnc1)NCCCCC1CCN(C(=O)c2ccccc2)CC1` [FK866], the “NAD^+ detection following treatment” value ([3]; 1 nM for 1, 3 and 6 hours, Nalm-6 cells) was “gradual decrease in NAD^+ detection”, the “change in NAD^+ production after FK866 treatment compared to control” value ([3]; Nalm-6/miR-451 inhibitor cells) was “more than 5 fold” and the “change in NAD^+ production after FK866 treatment compared to control” value ([3]; Nalm-6/miR-451 mimic cells) was “less change in NAD^+ production”. For the same molecule, the “tumor growth/volume change treated vs untreated” value ([4]; NALM-6/miR-451 mimic mice) was “Only a moderate difference in tumor growth/volume change”, the “mean tumor volume at the end of experiments” value ([4]; miR-451 mimic group, FK866 15 mg/kg) was 544±64 mm^3 and the tolerability and safety [5] was “well tolerated and safe”. The cell viability [6] was “significant decrease in cell viability”, the apoptosis level [7] was “significantly increased apoptosis level” and the “mean tumor volume at the end of experiment” value ([8]; 15 mg/kg daily, day 32) was 300.36±63.67 mm^3. For the same molecule, the tumor growth increase ([8]; 15 mg/kg daily, day 32 vs day 25) was “less than 150%”, the “volume change treated vs non-treated group” value ([8]; within 4 days of treatment (day 29)) was “tumor growth inhibition” and the “tumor growth/volume change treated vs un-treated” value ([9]; NALM-6/antagomiR-451 mice) was “significant difference in tumor growth/volume change”. For the same molecule, the “mean tumor volume at the end of experiments” value ([9]; antagomiR-451 group, FK866 15 mg/kg) was 117±81 mm^3.
For “miR-1290 mimic: synthetic miR-1290 mimic, SEQ ID NO:4, for over-expression of miR-1290 (UGGAUUUUUGGAUCACCUGAUCCAAAAAU; listed as RNA, chemistry not given here)”, the “increase in the levels of phospho-STAT protein” value [10] was 50%.
